Reference: PMC8371461 (Frontiers in Pharmacology, 2021)

Assays:
[1] = target: T1, ABL1(F317I)-nonphosphorylated (Homo sapiens, UniProt P00519, F317I); experiment: kinome scan; assay type: binding; conditions: 10 µM
T1 construct: purchased DiscoverX (KINOMEscan)

[2] = target: T2, ABL1(Q252H)-nonphosphorylated (Homo sapiens, UniProt P00519, Q252H); experiment: kinome scan; assay type: binding; conditions: 10 µM
T2 construct: purchased DiscoverX (KINOMEscan)

[3] = target: T3, ABL1(T315I)-nonphosphorylated (Homo sapiens, UniProt P00519, T315I); experiment: kinome scan; assay type: binding; conditions: 10 µM
T3 construct: purchased DiscoverX (KINOMEscan)

ACVR1 = target: T4, ACVR1 (Homo sapiens, UniProt Q04771); experiment: kinome scan; assay type: binding; conditions: 10 µM
T4 construct: purchased DiscoverX (KINOMEscan)

ASK1 = target: T5, ASK1 (Homo sapiens, UniProt Q99683); experiment: kinome scan; assay type: binding; conditions: 10 µM
T5 construct: purchased DiscoverX (KINOMEscan)

ASK2 = target: T6, ASK2 (Homo sapiens, UniProt O95382); experiment: kinome scan; assay type: binding; conditions: 10 µM
T6 construct: purchased DiscoverX (KINOMEscan)

BMPR1A = target: T7, BMPR1A (Homo sapiens, UniProt P36894); experiment: kinome scan; assay type: binding; conditions: 10 µM
T7 construct: purchased DiscoverX (KINOMEscan)

CSNK1A1 = target: T8, CSNK1A1 (Homo sapiens, UniProt P48729); experiment: kinome scan; assay type: binding; conditions: 10 µM
T8 construct: purchased DiscoverX (KINOMEscan)

CSNK1D = target: T9, CSNK1D (Homo sapiens, UniProt P48730); experiment: kinome scan; assay type: binding; conditions: 10 µM
T9 construct: purchased DiscoverX (KINOMEscan)

DMPK2 = target: T10, DMPK2 (Homo sapiens, UniProt Q6DT37); experiment: kinome scan; assay type: binding; conditions: 10 µM
T10 construct: purchased DiscoverX (KINOMEscan)

DYRK1A = target: T11, DYRK1A (Homo sapiens, UniProt Q13627); experiment: kinome scan; assay type: binding; conditions: 10 µM
T11 construct: purchased DiscoverX (KINOMEscan)

ERBB2 = target: T12, ERBB2 (Homo sapiens, UniProt P04626); experiment: kinome scan; assay type: binding; conditions: 10 µM
T12 construct: purchased DiscoverX (KINOMEscan)

ERK8 = target: T13, ERK8 (Homo sapiens, UniProt Q8TD08); experiment: kinome scan; assay type: binding; conditions: 10 µM
T13 construct: purchased DiscoverX (KINOMEscan)

FGFR1 = target: T14, FGFR1 (Homo sapiens, UniProt P11362); experiment: kinome scan; assay type: binding; conditions: 10 µM
T14 construct: purchased DiscoverX (KINOMEscan)

FGFR3(G697C) = target: T15, FGFR3(G697C) (Homo sapiens, UniProt P22607, G697C); experiment: kinome scan; assay type: binding; conditions: 10 µM
T15 construct: purchased DiscoverX (KINOMEscan)

FLT3(R834Q) = target: T16, FLT3(R834Q) (Homo sapiens, UniProt P36888, R834Q); experiment: kinome scan; assay type: binding; conditions: 10 µM
T16 construct: purchased DiscoverX (KINOMEscan)

FRK = target: T17, FRK (Homo sapiens, UniProt P42685); experiment: kinome scan; assay type: binding; conditions: 10 µM
T17 construct: purchased DiscoverX (KINOMEscan)

HIPK1 = target: T18, HIPK1 (Homo sapiens, UniProt Q86Z02); experiment: kinome scan; assay type: binding; conditions: 10 µM
T18 construct: purchased DiscoverX (KINOMEscan)

HIPK3 = target: T19, HIPK3 (Homo sapiens, UniProt Q9H422); experiment: kinome scan; assay type: binding; conditions: 10 µM
T19 construct: purchased DiscoverX (KINOMEscan)

ICK = target: T20, ICK (Homo sapiens, UniProt Q9UPZ9); experiment: kinome scan; assay type: binding; conditions: 10 µM
T20 construct: purchased DiscoverX (KINOMEscan)

IGF1R = target: T21, IGF1R (Homo sapiens, UniProt P08069); experiment: kinome scan; assay type: binding; conditions: 10 µM
T21 construct: purchased DiscoverX (KINOMEscan)

INSRR = target: T22, INSRR (Homo sapiens, UniProt P14616); experiment: kinome scan; assay type: binding; conditions: 10 µM
T22 construct: purchased DiscoverX (KINOMEscan)

IRAK3 = target: T23, IRAK3 (Homo sapiens, UniProt Q9Y616); experiment: kinome scan; assay type: binding; conditions: 10 µM
T23 construct: purchased DiscoverX (KINOMEscan)

LKB1 = target: T24, LKB1 (Homo sapiens, UniProt Q15831); experiment: kinome scan; assay type: binding; conditions: 10 µM
T24 construct: purchased DiscoverX (KINOMEscan)

MARK2 = target: T25, MARK2 (Homo sapiens, UniProt Q7KZI7); experiment: kinome scan; assay type: binding; conditions: 10 µM
T25 construct: purchased DiscoverX (KINOMEscan)

NEK5 = target: T26, NEK5 (Homo sapiens, UniProt Q6P3R8); experiment: kinome scan; assay type: binding; conditions: 10 µM
T26 construct: purchased DiscoverX (KINOMEscan)

p38-delta = target: T27, p38-delta (Homo sapiens, UniProt O15264); experiment: kinome scan; assay type: binding; conditions: 10 µM
T27 construct: purchased DiscoverX (KINOMEscan)

PHKG2 = target: T28, PHKG2 (Homo sapiens, UniProt P15735); experiment: kinome scan; assay type: binding; conditions: 10 µM
T28 construct: purchased DiscoverX (KINOMEscan)

PIK3CA(I800L) = target: T29, PIK3CA(I800L) (Homo sapiens, UniProt P42336, I800L); experiment: kinome scan; assay type: binding; conditions: 10 µM
T29 construct: purchased DiscoverX (KINOMEscan)

PIK3CB = target: T30, PIK3CB (Homo sapiens, UniProt P42338); experiment: kinome scan; assay type: binding
T30 construct: purchased DiscoverX (KINOMEscan)

QSK = target: T31, QSK (Homo sapiens, UniProt Q9Y2K2); experiment: kinome scan; assay type: binding; conditions: 10 µM
T31 construct: purchased DiscoverX (KINOMEscan)

RET = target: T32, RET (Homo sapiens, UniProt P07949); experiment: kinome scan; assay type: binding; conditions: 10 µM
T32 construct: purchased DiscoverX (KINOMEscan)

ROS1 = target: T33, ROS1 (Homo sapiens, UniProt P08922); experiment: kinome scan; assay type: binding; conditions: 10 µM
T33 construct: purchased DiscoverX (KINOMEscan)

SgK110 = target: T34, SgK110 (Homo sapiens, UniProt P0C264); experiment: kinome scan; assay type: binding; conditions: 10 µM
T34 construct: purchased DiscoverX (KINOMEscan)

SIK = target: T35, SIK (Homo sapiens, UniProt P57059); experiment: kinome scan; assay type: binding; conditions: 10 µM
T35 construct: purchased DiscoverX (KINOMEscan)

SLK = target: T36, SLK (Homo sapiens, UniProt Q9H2G2); experiment: kinome scan; assay type: binding; conditions: 10 µM
T36 construct: purchased DiscoverX (KINOMEscan)

TLK1 = target: T37, TLK1 (Homo sapiens, UniProt Q9UKI8); experiment: kinome scan; assay type: binding; conditions: 10 µM
T37 construct: purchased DiscoverX (KINOMEscan)

TRKB = target: T38, TRKB (Homo sapiens, UniProt Q16620); experiment: kinome scan; assay type: binding; conditions: 10 µM
T38 construct: purchased DiscoverX (KINOMEscan)

TXK = target: T39, TXK (Homo sapiens, UniProt P42681); experiment: kinome scan; assay type: binding; conditions: 10 µM
T39 construct: purchased DiscoverX (KINOMEscan)

Abelson (Abl) = Abelson (Abl) (Homo sapiens, UniProt P00519); experiment: Milano activity test; assay type: biochemical; conditions: wild-type Abl; for Milano activity test: up to 100 µM
[4] = system: Hemoglobin beta chain splicing at IVS2 705 locus; set-up: method as in CHEMBL1614204; conditions: reported activity, data mining; ref CHEMBL1614204; cited from earlier work
[5] = system: Euchromatic histone-lysine N-methyltransferase 2; set-up: method as in PubChem Bioassay ID 504,332; conditions: reported activity, data mining; ref PubChem Bioassay ID 504,332; cited from earlier work

T30 sequence (P42338 whole entry): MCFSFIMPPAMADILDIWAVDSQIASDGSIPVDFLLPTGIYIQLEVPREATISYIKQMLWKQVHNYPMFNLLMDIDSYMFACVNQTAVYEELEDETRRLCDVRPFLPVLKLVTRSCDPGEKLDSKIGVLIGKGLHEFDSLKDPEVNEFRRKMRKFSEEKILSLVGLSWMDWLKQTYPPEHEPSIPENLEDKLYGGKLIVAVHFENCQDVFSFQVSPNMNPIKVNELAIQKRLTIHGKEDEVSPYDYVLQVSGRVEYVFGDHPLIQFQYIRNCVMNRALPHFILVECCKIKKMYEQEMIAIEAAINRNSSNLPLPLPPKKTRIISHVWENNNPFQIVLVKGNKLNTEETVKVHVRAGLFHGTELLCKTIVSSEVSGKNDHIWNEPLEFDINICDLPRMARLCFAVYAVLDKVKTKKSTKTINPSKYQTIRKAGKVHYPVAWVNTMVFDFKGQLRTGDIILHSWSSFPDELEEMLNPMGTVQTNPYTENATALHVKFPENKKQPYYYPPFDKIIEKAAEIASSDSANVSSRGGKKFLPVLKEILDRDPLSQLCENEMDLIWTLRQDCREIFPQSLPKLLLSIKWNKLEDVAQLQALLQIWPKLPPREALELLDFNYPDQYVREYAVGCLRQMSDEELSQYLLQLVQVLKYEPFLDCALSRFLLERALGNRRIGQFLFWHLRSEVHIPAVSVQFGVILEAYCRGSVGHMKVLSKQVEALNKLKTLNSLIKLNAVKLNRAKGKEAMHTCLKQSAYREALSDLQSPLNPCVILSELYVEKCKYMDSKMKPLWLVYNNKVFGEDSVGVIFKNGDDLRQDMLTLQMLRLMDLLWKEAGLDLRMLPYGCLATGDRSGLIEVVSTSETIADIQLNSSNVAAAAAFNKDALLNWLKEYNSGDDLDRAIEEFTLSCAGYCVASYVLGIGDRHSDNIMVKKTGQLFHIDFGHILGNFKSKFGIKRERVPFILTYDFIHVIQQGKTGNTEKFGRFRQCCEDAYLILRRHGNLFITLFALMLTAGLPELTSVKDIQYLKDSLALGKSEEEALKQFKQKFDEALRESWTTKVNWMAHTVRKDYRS
T18 sequence (Q86Z02 whole entry): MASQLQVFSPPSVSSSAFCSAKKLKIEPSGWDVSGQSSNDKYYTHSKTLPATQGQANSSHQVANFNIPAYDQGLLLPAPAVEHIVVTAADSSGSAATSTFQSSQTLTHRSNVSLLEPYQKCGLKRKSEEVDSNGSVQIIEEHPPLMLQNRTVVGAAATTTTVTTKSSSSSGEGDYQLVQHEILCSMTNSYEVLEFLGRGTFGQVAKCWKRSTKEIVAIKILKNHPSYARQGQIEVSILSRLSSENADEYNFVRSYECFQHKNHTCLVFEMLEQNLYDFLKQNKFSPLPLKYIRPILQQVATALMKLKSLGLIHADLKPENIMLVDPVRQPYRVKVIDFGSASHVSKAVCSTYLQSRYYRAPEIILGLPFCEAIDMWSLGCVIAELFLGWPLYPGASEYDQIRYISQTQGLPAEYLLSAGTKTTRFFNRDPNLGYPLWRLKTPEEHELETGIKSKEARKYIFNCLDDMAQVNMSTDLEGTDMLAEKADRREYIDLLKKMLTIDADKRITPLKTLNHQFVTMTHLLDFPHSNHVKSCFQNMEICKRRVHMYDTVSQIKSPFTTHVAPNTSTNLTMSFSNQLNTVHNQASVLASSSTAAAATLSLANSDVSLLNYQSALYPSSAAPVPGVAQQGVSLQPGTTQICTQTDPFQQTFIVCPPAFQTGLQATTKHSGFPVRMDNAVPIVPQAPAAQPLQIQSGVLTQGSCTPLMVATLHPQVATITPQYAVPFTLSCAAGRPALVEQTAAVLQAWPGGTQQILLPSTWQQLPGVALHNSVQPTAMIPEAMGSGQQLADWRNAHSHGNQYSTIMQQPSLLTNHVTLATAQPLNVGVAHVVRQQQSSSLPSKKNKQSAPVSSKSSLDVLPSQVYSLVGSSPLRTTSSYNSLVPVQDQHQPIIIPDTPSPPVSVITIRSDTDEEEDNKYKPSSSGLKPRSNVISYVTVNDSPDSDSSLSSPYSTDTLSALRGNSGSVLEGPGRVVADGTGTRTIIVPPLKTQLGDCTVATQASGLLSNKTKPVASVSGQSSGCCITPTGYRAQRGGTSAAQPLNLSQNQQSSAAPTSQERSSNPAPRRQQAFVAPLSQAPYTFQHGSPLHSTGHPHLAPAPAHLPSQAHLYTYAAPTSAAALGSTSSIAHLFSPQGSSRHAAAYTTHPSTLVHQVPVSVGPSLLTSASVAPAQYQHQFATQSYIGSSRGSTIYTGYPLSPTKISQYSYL
T21 sequence (P08069 31-1367): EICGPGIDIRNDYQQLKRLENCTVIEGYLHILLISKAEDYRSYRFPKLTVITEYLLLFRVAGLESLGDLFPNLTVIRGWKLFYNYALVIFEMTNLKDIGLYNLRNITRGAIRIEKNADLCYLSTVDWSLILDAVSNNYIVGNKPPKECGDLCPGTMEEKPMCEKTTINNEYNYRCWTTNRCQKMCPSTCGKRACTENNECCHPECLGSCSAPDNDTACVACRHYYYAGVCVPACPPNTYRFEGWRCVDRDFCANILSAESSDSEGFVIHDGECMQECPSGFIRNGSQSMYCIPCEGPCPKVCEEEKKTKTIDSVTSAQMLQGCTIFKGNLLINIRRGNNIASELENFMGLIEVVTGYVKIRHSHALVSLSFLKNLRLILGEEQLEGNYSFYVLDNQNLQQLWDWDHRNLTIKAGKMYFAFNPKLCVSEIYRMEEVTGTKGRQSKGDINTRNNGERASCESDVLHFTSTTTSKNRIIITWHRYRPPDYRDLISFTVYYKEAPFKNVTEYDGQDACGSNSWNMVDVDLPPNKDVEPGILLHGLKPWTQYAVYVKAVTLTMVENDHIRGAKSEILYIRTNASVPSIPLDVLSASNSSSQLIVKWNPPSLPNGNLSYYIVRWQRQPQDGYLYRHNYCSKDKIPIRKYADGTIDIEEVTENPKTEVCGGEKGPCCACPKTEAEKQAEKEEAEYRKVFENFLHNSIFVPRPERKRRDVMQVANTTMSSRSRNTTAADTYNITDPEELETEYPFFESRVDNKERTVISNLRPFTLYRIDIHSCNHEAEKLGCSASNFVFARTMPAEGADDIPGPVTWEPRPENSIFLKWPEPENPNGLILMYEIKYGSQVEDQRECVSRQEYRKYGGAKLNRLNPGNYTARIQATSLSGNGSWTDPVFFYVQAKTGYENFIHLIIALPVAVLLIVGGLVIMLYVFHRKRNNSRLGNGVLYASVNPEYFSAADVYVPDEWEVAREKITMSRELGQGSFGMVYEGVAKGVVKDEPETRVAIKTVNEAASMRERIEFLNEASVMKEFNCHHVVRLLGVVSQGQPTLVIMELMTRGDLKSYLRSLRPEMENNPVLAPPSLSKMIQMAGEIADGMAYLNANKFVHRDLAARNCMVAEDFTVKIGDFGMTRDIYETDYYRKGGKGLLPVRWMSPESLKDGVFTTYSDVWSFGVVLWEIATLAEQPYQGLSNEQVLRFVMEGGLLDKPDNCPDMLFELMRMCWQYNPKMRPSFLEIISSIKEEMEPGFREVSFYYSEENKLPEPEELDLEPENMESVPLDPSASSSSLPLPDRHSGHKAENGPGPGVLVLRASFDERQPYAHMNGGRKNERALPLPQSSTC
T17 sequence (P42685 whole entry): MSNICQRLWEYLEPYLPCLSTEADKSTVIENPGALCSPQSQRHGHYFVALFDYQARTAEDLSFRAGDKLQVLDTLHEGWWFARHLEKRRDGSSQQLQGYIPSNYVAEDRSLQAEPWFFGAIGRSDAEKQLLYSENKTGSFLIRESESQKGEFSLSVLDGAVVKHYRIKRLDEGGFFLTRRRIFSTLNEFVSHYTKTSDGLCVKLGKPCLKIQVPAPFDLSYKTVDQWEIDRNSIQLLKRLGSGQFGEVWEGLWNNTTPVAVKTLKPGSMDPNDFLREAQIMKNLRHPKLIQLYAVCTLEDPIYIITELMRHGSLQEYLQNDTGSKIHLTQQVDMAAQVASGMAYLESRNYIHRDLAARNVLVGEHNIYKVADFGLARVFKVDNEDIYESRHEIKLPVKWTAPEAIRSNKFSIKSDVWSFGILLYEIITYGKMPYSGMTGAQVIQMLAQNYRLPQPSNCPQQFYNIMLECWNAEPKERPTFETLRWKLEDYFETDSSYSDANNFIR
T38 sequence (Q16620 32-822): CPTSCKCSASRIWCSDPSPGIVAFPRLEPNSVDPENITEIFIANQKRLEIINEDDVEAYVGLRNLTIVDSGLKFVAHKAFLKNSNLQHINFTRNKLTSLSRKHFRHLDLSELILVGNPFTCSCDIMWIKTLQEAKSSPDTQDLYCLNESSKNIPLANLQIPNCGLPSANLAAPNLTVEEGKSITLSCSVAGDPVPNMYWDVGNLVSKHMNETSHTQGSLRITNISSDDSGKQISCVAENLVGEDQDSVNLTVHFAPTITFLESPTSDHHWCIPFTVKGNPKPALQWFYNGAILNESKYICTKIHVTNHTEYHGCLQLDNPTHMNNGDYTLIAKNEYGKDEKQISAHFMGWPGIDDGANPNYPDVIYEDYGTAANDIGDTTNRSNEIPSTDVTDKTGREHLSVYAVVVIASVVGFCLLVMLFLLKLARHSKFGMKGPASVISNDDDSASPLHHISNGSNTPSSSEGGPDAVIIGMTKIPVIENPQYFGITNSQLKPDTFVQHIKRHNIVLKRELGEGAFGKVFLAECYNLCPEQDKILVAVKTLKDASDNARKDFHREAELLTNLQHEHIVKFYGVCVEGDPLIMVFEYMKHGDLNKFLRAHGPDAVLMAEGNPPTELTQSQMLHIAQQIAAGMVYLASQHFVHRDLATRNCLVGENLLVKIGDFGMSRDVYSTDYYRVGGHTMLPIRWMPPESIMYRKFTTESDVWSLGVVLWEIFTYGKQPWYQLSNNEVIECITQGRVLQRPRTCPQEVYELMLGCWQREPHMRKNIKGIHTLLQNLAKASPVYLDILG

Nc1ccc(N=Nc2ccccc2)c(N)n1 [phenazopyridine, 2,6-diamino-3-(phenylazo)pyridine]
kinase inhibition [1]: 96 | kinase inhibition [2]: 90 | kinase inhibition [3]: 100 | kinase inhibition (ACVR1): 100 | kinase inhibition (ASK1): 100 | kinase inhibition (ASK2): 83 | kinase inhibition (BMPR1A): 98 | kinase inhibition (CSNK1A1): 85 | kinase inhibition (CSNK1D): 50 | kinase inhibition (DMPK2): 100 | remaining binding (% of control) (DYRK1A): 73 | kinase inhibition (ERBB2): 64 | kinase inhibition (ERK8): 100 | kinase inhibition (FGFR1): 100 | kinase inhibition (FGFR3(G697C)): 100 | remaining binding (% of control) (FLT3(R834Q)): 89 | remaining binding (% of control) (FRK): 100 | kinase inhibition (HIPK1): 58 | kinase inhibition (HIPK3): 98 | kinase inhibition (ICK): 90 | kinase inhibition (IGF1R): 100 | kinase inhibition (INSRR): 100 | kinase inhibition (IRAK3): 71 | kinase inhibition (LKB1): 88 | kinase inhibition (MARK2): 100 | kinase inhibition (NEK5): 100 | kinase inhibition (p38-delta): 89 | kinase inhibition (PHKG2): 100 | kinase inhibition (PIK3CA(I800L)): 88 | remaining binding (% of control) (PIK3CB; 10 µM): 22 | remaining binding at 10 µM (PIK3CB; read-out: % Of control): 22% | kinase inhibition (QSK): 94 | kinase inhibition (RET): 100 | kinase inhibition (ROS1): 100 | kinase inhibition (SgK110): 100 | kinase inhibition (SIK): 100 | kinase inhibition (SLK): 100 | kinase inhibition (TLK1): 70 | kinase inhibition (TRKB): 81 | remaining binding (% of control) (TXK): 100 | inhibition at 500 µM (Abelson (Abl); 500 µM, data not shown): 35% | Milano activity test (Abelson (Abl)): not inhibited | Milano activity test (Abelson (Abl); listed as Phenazopyridine): Phenazopyridine is inactive at 100 µM | Concentration [4]: 20 µM | Concentration [5]: 10 µM
